Experiment [1] deals with T1, EGFR with insertion of SVD between D770 and N771 (EGFR ins SVD) (Homo sapiens, UniProt P00533, DUP768-770).
T1 construct: made in house; host or cells: Sf9 insect cells (baculovirus)
In words: Exon20-Mutant-EGFR(D770_N771insSVD) kinase assay (TR-FRET). Format: biochemical. The note with it: 2 mM ATP, several values per example where printed. For orientation: In TR-FRET formats the signal depends on donor and acceptor labels being close together.

The next experiment addresses Ba/F3-EGFR-WT cells (Homo sapiens, UniProt P00533). In words: Ba/F3 cell survival assay (Cell Titer-Glo), WT EGFR. In kind it is cell-based. The note with it: without IL-3, with 10 ng/mL EGF, 48 h; read-out: BA/F3 (wild type) IC50. On the procedure:
(§1) 293T cells from ATCC were transfected with pBABEpuro expression constructs for WT EGFR or EGFR-insSVD and pCL-Eco packaging vector using Fugene-6 transfection reagent from Promega. Plates were incubated at 37° C. for 48 h. Retrovirus was harvested by filtering the media supernatant through a 0.45 μm filter.
(§2) Ba/F3 cells purchased from DSMZ were grown in RPMI+10% FBS+10 ng/mL IL-3 and infected with filtered retroviral supernatant at a 1:2 dilution. Polybrene was added to a concentration of 8 μg/mL, plates were spun for 90 min, and incubated overnight at 37° C. 2 μg/mL puromycin was added to the infected cells 24 h after infection and cells were continually grown in the presence of puromycin and 10 ng/mL IL-3. Following stably expressing Ba/F3 cell lines were generated: Ba/F3-EGFR-WT, Ba/F3-EGFR-insSVD, (Ba/F3-vector-control).
(§3) For cell survival assays, Ba/F3 cells were grown to a density of 1-2 million cells per mL, spun down and resuspended in media without IL-3, and replated at a concentration 200,000-500,000 cells per mL. The cells ectopically expressing WT EGFR or EGFR-insSVD were plated with 10 ng/mL Millipore Culture grade EGF. The cells ectopically expressing pBABEpuro empty vector were plated with 10 ng/mL IL-3. 2 days later, cells were plated in 50 μL in a 384 well plate at a concentration of 4000 cells per well for cells assayed in the absence of IL-3 and 2000 cells per well for cells assayed in the presence of IL-3. 100 nL of compound was added to each well using a 100 nL pin head, and plates were incubated at 37° C. for 48 h.
(§4) Cell viability was measured by adding 20 μL of Cell Titer-Glo Luminescent Cell Viability Reagent diluted 1:3 in PBS. Plates were sealed with Perkin Elmer Top-Seal, inverted several times to mix, and immediately centrifuged at 1000 rpm for 2 min. Plates were incubated in low light conditions for 8-10 min and luminescence was measured.
(ATP-based viability assays read luminescence as a measure of living cells.)

The next experiment deals with T2, Bub1 (Homo sapiens, UniProt O43683).
T2 construct: catalytic domain of human Bub1 (amino acids 704-1085); His6 (N); made in house; host or cells: Hi5 insect cells
The experiment is described as follows: Bub1 TR-FRET high ATP kinase assay. The note with it: Bub1 high ATP (2 mM) IC50 [mol/l], 2 mM ATP. In kind it is biochemical. The source says:
Bub1 High ATP Kinase Assay
Bub1-inhibitory activity of compounds of the present invention at a high ATP concentration was quantified employing the Bub1 TR-FRET high ATP kinase assay as described in the following paragraphs.
N-terminally His6-tagged recombinant catalytic domain of human Bub1 (amino acids 704-1085), expressed in insect cells (Hi5) and purified by Ni-NTA affinity chromatography and subsequent size exclusion chromatography, was used as enzyme. As substrate for the kinase reaction the biotinylated peptide biotin-Ahx-[…]—SEQ ID 7 (C-terminus in amid form) was used which can be purchased e.g. form the company Biosyntan (Berlin, Germany).

The next experiment concerns the target Ba/F3-EGFR-insSVD cells (Homo sapiens, UniProt P00533, DUP768-770, cells depend on it). In words: Ba/F3 cell survival assay (Cell Titer-Glo), EGFR-insSVD. The note with it: without IL-3, with 10 ng/mL EGF, 48 h; read-out: BA/F3 (insSVD) IC50. Format: cell-based. How it is done:
as §1, §2, §3, §4

Consider nine compounds from US12679836B2, “4H-pyrrolo[3,2-c]pyridin-4-one compounds” (Bayer Aktiengesellschaft, priority 2019, dated 2026).

One may read the IC50 as the concentration that inhibits the measured activity by half.

Chain of Ba/F3-EGFR-insSVD cells (P00533 with tags, fused parts or gaps DUP768-770): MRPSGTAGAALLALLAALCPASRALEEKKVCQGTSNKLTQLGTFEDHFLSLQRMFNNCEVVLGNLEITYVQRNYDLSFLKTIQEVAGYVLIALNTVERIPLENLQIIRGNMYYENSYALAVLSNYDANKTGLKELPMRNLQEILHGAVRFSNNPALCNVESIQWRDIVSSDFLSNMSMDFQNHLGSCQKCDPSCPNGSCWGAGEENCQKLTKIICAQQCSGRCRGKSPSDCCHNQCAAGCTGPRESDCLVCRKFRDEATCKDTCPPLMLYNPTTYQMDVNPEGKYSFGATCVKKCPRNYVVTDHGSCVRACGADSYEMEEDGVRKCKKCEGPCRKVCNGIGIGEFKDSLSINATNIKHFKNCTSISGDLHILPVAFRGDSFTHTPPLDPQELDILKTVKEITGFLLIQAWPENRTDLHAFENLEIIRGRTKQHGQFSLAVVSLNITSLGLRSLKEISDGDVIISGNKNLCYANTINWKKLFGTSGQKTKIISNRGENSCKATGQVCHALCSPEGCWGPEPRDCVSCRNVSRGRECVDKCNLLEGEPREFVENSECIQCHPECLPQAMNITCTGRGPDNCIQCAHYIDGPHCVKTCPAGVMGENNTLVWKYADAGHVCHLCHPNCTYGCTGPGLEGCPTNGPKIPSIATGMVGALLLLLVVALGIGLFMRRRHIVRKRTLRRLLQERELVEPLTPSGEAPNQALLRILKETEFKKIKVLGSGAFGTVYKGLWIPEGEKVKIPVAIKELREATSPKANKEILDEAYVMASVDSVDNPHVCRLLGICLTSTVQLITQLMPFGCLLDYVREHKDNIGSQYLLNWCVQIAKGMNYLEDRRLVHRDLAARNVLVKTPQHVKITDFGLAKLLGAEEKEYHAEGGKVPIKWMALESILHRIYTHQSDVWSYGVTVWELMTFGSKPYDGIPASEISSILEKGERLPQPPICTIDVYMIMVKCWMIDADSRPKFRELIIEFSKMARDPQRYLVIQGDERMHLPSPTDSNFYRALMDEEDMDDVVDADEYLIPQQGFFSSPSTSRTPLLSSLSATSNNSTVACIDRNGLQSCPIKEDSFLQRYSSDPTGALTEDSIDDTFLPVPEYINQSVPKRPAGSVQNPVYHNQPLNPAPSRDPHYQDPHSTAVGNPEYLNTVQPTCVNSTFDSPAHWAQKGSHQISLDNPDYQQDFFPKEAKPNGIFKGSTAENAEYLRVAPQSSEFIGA
Chain of Ba/F3-EGFR-WT cells (P00533 whole entry, stated change not applied): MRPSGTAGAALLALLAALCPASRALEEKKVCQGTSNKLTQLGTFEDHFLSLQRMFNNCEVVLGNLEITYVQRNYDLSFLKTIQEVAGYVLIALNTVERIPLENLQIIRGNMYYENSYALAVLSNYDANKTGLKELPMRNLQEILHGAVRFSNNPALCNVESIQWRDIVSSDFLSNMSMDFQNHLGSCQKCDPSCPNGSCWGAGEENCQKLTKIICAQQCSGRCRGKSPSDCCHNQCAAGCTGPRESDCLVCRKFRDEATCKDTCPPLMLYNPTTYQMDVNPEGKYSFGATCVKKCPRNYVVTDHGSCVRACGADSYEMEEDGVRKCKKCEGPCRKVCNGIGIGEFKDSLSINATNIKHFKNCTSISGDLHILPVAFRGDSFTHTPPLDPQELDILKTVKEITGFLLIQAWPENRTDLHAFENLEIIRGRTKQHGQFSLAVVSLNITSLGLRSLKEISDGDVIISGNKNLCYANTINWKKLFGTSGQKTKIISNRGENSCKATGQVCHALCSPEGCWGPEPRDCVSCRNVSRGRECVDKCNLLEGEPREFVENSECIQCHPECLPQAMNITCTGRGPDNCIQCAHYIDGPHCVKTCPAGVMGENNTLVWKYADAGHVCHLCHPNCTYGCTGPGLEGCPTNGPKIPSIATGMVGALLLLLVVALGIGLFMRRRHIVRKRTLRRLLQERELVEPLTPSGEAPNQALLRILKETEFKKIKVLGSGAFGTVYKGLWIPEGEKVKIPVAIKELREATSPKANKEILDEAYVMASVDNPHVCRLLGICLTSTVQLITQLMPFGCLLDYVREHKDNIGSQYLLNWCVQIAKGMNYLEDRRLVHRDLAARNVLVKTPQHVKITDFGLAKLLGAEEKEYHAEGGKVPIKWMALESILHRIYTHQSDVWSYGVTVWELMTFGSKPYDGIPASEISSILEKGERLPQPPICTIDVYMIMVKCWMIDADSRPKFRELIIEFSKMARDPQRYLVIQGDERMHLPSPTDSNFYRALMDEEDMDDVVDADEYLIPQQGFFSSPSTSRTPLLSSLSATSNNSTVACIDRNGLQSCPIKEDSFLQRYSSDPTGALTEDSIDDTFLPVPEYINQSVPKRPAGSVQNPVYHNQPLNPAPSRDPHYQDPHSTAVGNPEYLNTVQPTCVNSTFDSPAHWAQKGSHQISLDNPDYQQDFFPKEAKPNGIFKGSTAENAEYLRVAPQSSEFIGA
T2 sequence (O43683 704-1085): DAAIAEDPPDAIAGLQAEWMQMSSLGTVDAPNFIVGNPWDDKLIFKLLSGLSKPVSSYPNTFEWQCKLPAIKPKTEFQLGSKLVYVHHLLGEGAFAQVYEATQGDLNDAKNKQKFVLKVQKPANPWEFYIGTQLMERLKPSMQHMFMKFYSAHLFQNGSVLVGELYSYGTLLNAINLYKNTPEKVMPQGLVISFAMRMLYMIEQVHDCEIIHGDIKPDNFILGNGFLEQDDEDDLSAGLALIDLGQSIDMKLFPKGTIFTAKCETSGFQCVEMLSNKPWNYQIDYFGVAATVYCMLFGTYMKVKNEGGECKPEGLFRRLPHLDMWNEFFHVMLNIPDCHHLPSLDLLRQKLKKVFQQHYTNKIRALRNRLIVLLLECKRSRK
T1 sequence (P00533 with tags, fused parts or gaps DUP768-770): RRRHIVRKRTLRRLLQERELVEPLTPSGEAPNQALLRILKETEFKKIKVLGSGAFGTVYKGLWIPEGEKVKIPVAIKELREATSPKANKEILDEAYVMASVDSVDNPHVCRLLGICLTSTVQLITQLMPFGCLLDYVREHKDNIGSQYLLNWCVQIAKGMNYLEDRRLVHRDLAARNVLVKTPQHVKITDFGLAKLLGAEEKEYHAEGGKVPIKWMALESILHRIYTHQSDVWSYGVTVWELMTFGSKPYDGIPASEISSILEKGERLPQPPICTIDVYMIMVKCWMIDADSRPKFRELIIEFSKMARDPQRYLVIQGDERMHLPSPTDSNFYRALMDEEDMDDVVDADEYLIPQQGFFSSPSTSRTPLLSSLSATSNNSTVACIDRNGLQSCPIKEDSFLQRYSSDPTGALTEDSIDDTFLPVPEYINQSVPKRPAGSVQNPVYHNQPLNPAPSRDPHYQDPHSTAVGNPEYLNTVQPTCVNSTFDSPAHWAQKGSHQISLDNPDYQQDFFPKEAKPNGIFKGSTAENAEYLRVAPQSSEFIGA

In the case of `COc1c(F)cccc1Nc1c(-c2ccncc2OCC2CN(C)CCO2)[nH]c2c1C(=O)NCC2` (single isomer, unassigned) [Example 13, 3-(3-fluoro-2-methoxyanilino)-2-{3-[(4-methylmorpholin-2-yl)methoxy]pyridin-4-yl}-1,5,6,7-tetrahydro-4H-pyrrolo[3,2-c]pyridin-4-one], in experiment [1], the “mutEGFR (D770_N771insSVD) kinase assay IC50” value (“mutEGFR” for short) was determined as 0.139 nM. Also, the GI50 at Ba/F3-EGFR-WT cells is 1520 nM. Also, at Bub1, the 50% inhibitory concentration (IC50) was more than 20000 nM.

On to `COc1c(Cl)cccc1Nc1c(-c2ccncc2OCC2COC(C)(C)CO2)[nH]c2c1C(=O)NCC2` (single isomer, unassigned) [Example 31, 3-(3-chloro-2-methoxyanilino)-2-{3-[(5,5-dimethyl-1,4-dioxan-2-yl)methoxy]pyridin-4-yl}-1,5,6,7-tetrahydro-4H-pyrrolo[3,2-c]pyridin-4-one], for which the “mutEGFR” value in experiment [1] was 0.133 nM.

Regarding `COc1c(F)cccc1Nc1c(-c2ccncc2OCCC2COCCO2)[nH]c2c1C(=O)NCC2` (single isomer, unassigned) [Example 36, 2-(3-{2-[1,4-dioxan-2-yl]ethoxy}pyridin-4-yl)-3-(3-fluoro-2-methoxyanilino)-1,5,6,7-tetrahydro-4H-pyrrolo[3,2-c]pyridin-4-one], the values for the GI50 at Ba/F3-EGFR-WT cells and at Ba/F3-EGFR-insSVD cells were 845 nM and 68.1 nM, respectively. On Bub1, this compound returned an IC50 of 2820 nM.

On to `Cc1c(Cl)cccc1Nc1c(-c2ccncc2OCC2COC(C)(C)CO2)[nH]c2c1C(=O)NCC2` (single isomer, unassigned) [Example 45, 3-(3-chloro-2-methyl-anilino)-2-[3-[(5,5-dimethyl-1,4-dioxan-2-yl)methoxy]-4-pyridyl]-1,5,6,7-tetrahydropyrrolo[3,2-c]pyridin-4-one], for which, in experiment [1], the “mutEGFR” value came out at 0.492 nM. The GI50 on Ba/F3-EGFR-WT cells turned out to be 1640 nM. The compound further yielded an IC50 against Bub1 of more than 5710 nM.

As for `COc1c(Cl)cccc1Nc1c(-c2ccncc2O[C@@H](C)C2COCCO2)[nH]c2c1C(=O)NCC2` (single isomer, unassigned) [Example 58, 3-(3-chloro-2-methoxyanilino)-2-{3-[(1 S)-1-(1,4-dioxan-2-yl)ethoxy]pyridin-4-yl}-1,5,6,7-tetrahydro-4H-pyrrolo[3,2-c]pyridin-4-one], the GI50 amounted to 519 nM at Ba/F3-EGFR-WT cells and 29.8 nM on Ba/F3-EGFR-insSVD cells. Besides, the IC50 against Bub1 stood at 13900 nM.

Regarding `COc1c(Cl)cccc1Nc1c(-c2ccncc2O[C@H](C)C2COCCO2)[nH]c2c1C(=O)NCC2` (single isomer, unassigned) [Example 61], in experiment [1], the “mutEGFR” value came to 0.935 nM. For the same compound, the GI50 at Ba/F3-EGFR-WT cells is 3770 nM; at Ba/F3-EGFR-insSVD cells, 300 nM.

For `COc1c(Cl)cccc1Nc1c(-c2ccncc2OCC2COC(C)(C)CO2)[nH]c2c1C(=O)NCC2` (stereo not drawn) [Example 30, 3-(3-chloro-2-methoxyanilino)-2-{3-[(5,5-dimethyl-1,4-dioxan-2-yl)methoxy]pyridin-4-yl}-1,5,6,7-tetrahydro-4H-pyrrolo[3,2-c]pyridin-4-one], the GI50 was found to be 407 nM on Ba/F3-EGFR-WT cells and 19.3 nM at Ba/F3-EGFR-insSVD cells. The same compound had an IC50 against Bub1 of more than 20000 nM.

Consider `Cc1c(Cl)cccc1Nc1c(-c2ccncc2OCC2COC(C)(C)CO2)[nH]c2c1C(=O)NCC2` (stereo not drawn) [Example 44, 3-(3-chloro-2-methyl-anilino)-2-[3-[(5,5-dimethyl-1,4-dioxan-2-yl)methoxy]-4-pyridyl]-1,5,6,7-tetrahydropyrrolo[3,2-c]pyridin-4-one], for which, in experiment [1], the “mutEGFR” value was found to be 0.15 nM. Moreover, on Ba/F3-EGFR-insSVD cells, the GI50 came to 25.7 nM.

For `Cc1c(F)cccc1Nc1c(-c2ccncc2OCC2COCCO2)[nH]c2c1C(=O)NCC2` (stereo not drawn) [Example 47, 2-[3-(1,4-dioxan-2-ylmethoxy)-4-pyridyl]-3-(3-fluoro-2-methyl-anilino)-1,5,6,7-tetrahydropyrrolo[3,2-c]pyridin-4-one], the GI50 on Ba/F3-EGFR-WT cells turned out to be 715 nM; at Ba/F3-EGFR-insSVD cells, 41.6 nM. Also, on Bub1, the IC50 came out at 5010 nM.
